{"source": "patent US20240180872A1", "about": "“METHODS AND COMPOUNDS OF CANNABIDIOL, MELATONIN AND AKBA FOR TREATING PANCREATIC CANCER” (priority 2021, published 2024)", "key": {"[1]": {"tested_on": "pancreatic adenocarcinoma associated genes", "assay": "TaqMan Array gene expression in MIAPaCa-2, normalized for GAPDH", "assay_type": "cell-based, Human", "settings": "Mia-PACA-2, 24 hs, CBD 3.8, MLT 200, AKBA 7.5 micrograms/ml", "description": "Total RNA from untreated or CBD, MLT, AKBA alone and in combination treated cell lines was extracted using Rneasy Mini kit (Qiagen, Milan, Italy). One microgram of total RNA from each sample was subjected to reverse transcription in a total volume of 20 μL using the High-Capacity cDNA Archive Kit (Applied Biosystem, Foster City, […], USA) according to the instructions. cDNAs were analyzed by qRT-PCR performed using an IQ5 Multicolor Real time PCR Detection system. Quantitative real-time gene expression was performed with the TaqMan® Array Human Pancreatic Adenocarcinoma 96-well Plate, containing 92 assays to pancreatic adenocarcinoma associated genes and 4 assays to candidate endogenous control genes, was purchased (Thermo Fisher, Grand Island, NY, USA) and used to evaluate the treatments in modulating PDAC-related genes (Table 1). Measurement of different housekeeping genes (GAPDH; HPRT1; GUSB) on the samples was used to normalize mRNA content. The gene expression levels of treated cell lines were expressed as relative fold compared with untreated or vehicle-treated cells.\nTo elucidate the molecular events induced by CBD, MLT and AKBA alone and in combination, 92 genes involved in PDAC progression and aggressiveness were evaluated by Taqman Array. Both cell lines were treated with CBD, MLT and AKBA alone and in combination, and the molecular pathways of PDAC associated gene were evaluated.\nTarget mRNA levels were normalized for GAPDH expression."}, "[2]": {"tested_on": "MIAPaCa-2 cell line", "assay": "Cytotoxicity assay (MTT, 72 hours, daily administration) in MIAPaCa-2", "settings": "Homo sapiens, MIA PaCa-2, read-out: % VIABILITY ± S.D.", "protocol": "Human pancreatic ductal adenocarcinoma (PANC-1 and MIAPaCa-2) cell lines were purchased by Sigma Aldrich (Milan, Italy) and cultured in DMEM high glucose medium (EuroClone, Milan, Italy) supplemented with 10% of fetal bovine serum (FBS), 2 mM L-glutamine, 100 IU/mL penicillin, 100 mg streptomycin and 1 mM sodium pyruvate. Cell lines were maintained at 37° C. with 5% CO2 and 95% of humidity.\n3×10^4 cells/mL were seeded in 96-well plates in a final volume of 100 L/well. After one day of incubation, compounds or vehicles, alone or in combination, were added and six replicates were used for each treatment and all experiments were repeated three times. In all the experiments, the treatment was daily added, after washing with fresh medium. After 72 hours cell viability was investigated by adding 0.8 mg/mL of 3-[4,5-dimethylthiazol-2-yl]-2,5 diphenyl tetrazolium bromide (MTT) (Sigma Aldrich) to the media. After 3 h the supernatant was removed, and the pellet of salt crystals was solubilized with 100 μL/well of DMSO. The absorbance of the sample against a background control was measured at 570 nm using an ELISA reader microliter plate (BioTek Instruments, Winooski, VT, USA).\nCytotoxicity in PDAC cell lines: The effect of CBD, MLT and AKBA in reducing cell viability was evaluated at 72 hours, post daily administration, in PDAC cell lines. Cells were treated with different doses of CBD, MLT and AKBA (up to 1 mg) and percentage of cell viability was evaluated by the MTT assay. […] The compounds were administered daily for 72 hours, as in previous experiments at the desired doses. […] MTT assay was used to analyse the cell cytotoxicity."}, "[3]": {"settings": "normalized for GAPDH, Akt pathways"}, "[4]": {"settings": "normalized for GAPDH, Akt-pathways"}, "[5]": {"settings": "normalized for GAPDH, DNA repair"}, "[6]": {"settings": "normalized for GAPDH, NfkB pathways"}, "[7]": {"settings": "normalized for GAPDH, Ras pathways"}, "[8]": {"settings": "normalized for GAPDH, TGF patways"}, "[9]": {"settings": "normalized for GAPDH, TGF-patways"}, "[10]": {"settings": "normalized for GAPDH, angiogenesis"}, "[11]": {"settings": "normalized for GAPDH, apoptosis"}, "[12]": {"settings": "normalized for GAPDH, cell cycle"}, "[13]": {"settings": "normalized for GAPDH, inflammation"}, "[14]": {"settings": "normalized for GAPDH, proliferation"}}}
{"smiles": "COc1ccc2[nH]cc(CCNC(C)=O)c2c1", "note": "[MLT, N-[2-(5-methoxy-1H-indol-3-yl)ethyl]acetamide]", "values": [{"measurement": "GAPDH relative expression", "setting": "[1]; GAPDH is the normalizer", "value": 1.00}, {"measurement": "PK3CB relative expression", "setting": "[1]; [3]", "value": 0.15}, {"measurement": "PK3CD relative expression", "setting": "[1]; [3]", "value": 0.07}, {"measurement": "AKT1 relative expression", "setting": "[1]; [4]", "value": 0.09}, {"measurement": "AKT2 relative expression", "setting": "[1]; [4]", "value": 0.55}, {"measurement": "AKT3 relative expression", "setting": "[1]; [4]", "value": 0.00}, {"measurement": "IGF1 relative expression", "setting": "[1]; [4]", "value": 0.00}, {"measurement": "PK3CA relative expression", "setting": "[1]; [4]", "value": 0.00}, {"measurement": "PK3R1 relative expression", "setting": "[1]; [4]", "value": 0.03}, {"measurement": "BRCA2 relative expression", "setting": "[1]; [5]", "value": 0.40}, {"measurement": "MDM2 relative expression", "setting": "[1]; [5]", "value": 0.00}, {"measurement": "TP53 relative expression", "setting": "[1]; [5]", "value": 0.26}, {"measurement": "HSP90AA1 relative expression", "setting": "[1]; normalized for GAPDH, Heat sock protein", "value": 0.00}, {"measurement": "NFKB1 relative expression", "setting": "[1]; [6]", "value": 0.11}, {"measurement": "NFKB2 relative expression", "setting": "[1]; [6]", "value": 0.02}, {"measurement": "REL relative expression", "setting": "[1]; [6]", "value": 0.09}, {"measurement": "RELA relative expression", "setting": "[1]; [6]", "value": 0.00}, {"measurement": "RELB relative expression", "setting": "[1]; [6]", "value": 0.06}, {"measurement": "RHOA relative expression", "setting": "[1]; [6]", "value": 0.07}, {"measurement": "RHOB relative expression", "setting": "[1]; [6]", "value": 0.03}, {"measurement": "BRAF relative expression", "setting": "[1]; [7]", "value": 0.16}, {"measurement": "E2F1 relative expression", "setting": "[1]; [7]", "value": 0.16}, {"measurement": "E2F3 relative expression", "setting": "[1]; [7]", "value": 0.09}, {"measurement": "E2F4 relative expression", "setting": "[1]; [7]", "value": 0.19}, {"measurement": "EGF relative expression", "setting": "[1]; [7]", "value": 0.00}, {"measurement": "EGFR relative expression", "setting": "[1]; [7]", "value": 0.19}, {"measurement": "ELK1 relative expression", "setting": "[1]; [7]", "value": 0.11}, {"measurement": "ERBB2 relative expression", "setting": "[1]; [7]", "value": 0.05}, {"measurement": "GRB2 relative expression", "setting": "[1]; [7]", "value": 0.28}, {"measurement": "HBEGF relative expression", "setting": "[1]; [7]", "value": 0.46}, {"measurement": "KRAS relative expression", "setting": "[1]; [7]", "value": 0.01}, {"measurement": "MAP2K1 relative expression", "setting": "[1]; [7]", "value": 0.04}, {"measurement": "MAP2K2 relative expression", "setting": "[1]; [7]", "value": 0.09}, {"measurement": "MAPK1 relative expression", "setting": "[1]; [7]", "value": 0.03}, {"measurement": "MAPK3 relative expression", "setting": "[1]; [7]", "value": 0.01}, {"measurement": "RAF1 relative expression", "setting": "[1]; [7]", "value": 0.07}, {"measurement": "RB1 relative expression", "setting": "[1]; [7]", "value": 0.03}, {"measurement": "SOS1 relative expression", "setting": "[1]; [7]", "value": 0.07}, {"measurement": "TGFB2 relative expression", "setting": "[1]; [8]", "value": 0.00}, {"measurement": "TGFB3 relative expression", "setting": "[1]; [8]", "value": 0.00}, {"measurement": "TGFBR1 relative expression", "setting": "[1]; [8]", "value": 0.00}, {"measurement": "SMAD2 relative expression", "setting": "[1]; [9]", "value": 0.21}, {"measurement": "SMAD3 relative expression", "setting": "[1]; [9]", "value": 0.24}, {"measurement": "SMAD4 relative expression", "setting": "[1]; [9]", "value": 0.09}, {"measurement": "TGFA relative expression", "setting": "[1]; [9]", "value": 0.20}, {"measurement": "TGFB1 relative expression", "setting": "[1]; [9]", "value": 0.04}, {"measurement": "TGFBR2 relative expression", "setting": "[1]; [9]", "value": 0.00}, {"measurement": "FIGF relative expression", "setting": "[1]; [10]", "value": 0.14}, {"measurement": "VEGFA relative expression", "setting": "[1]; [10]", "value": 0.02}, {"measurement": "VEGFB relative expression", "setting": "[1]; [10]", "value": 0.04}, {"measurement": "VEGFC relative expression", "setting": "[1]; [10]", "value": 0.00}, {"measurement": "BCL2L1 relative expression", "setting": "[1]; [11]", "value": 0.26}, {"measurement": "BCL2 relative expression", "setting": "[1]; [11]", "value": 0.00}, {"measurement": "BIRC5 relative expression", "setting": "[1]; [11]", "value": 0.16}, {"measurement": "CCNA2 relative expression", "setting": "[1]; [12]", "value": 0.09}, {"measurement": "CCNB1 relative expression", "setting": "[1]; [12]", "value": 0.40}, {"measurement": "CCND1 relative expression", "setting": "[1]; [12]", "value": 0.12}, {"measurement": "CCND2 relative expression", "setting": "[1]; [12]", "value": 0.00}, {"measurement": "CCNE1 relative expression", "setting": "[1]; [12]", "value": 0.13}, {"measurement": "CCNE2 relative expression", "setting": "[1]; [12]", "value": 0.09}, {"measurement": "CDC42 relative expression", "setting": "[1]; [12]", "value": 0.00}, {"measurement": "CDK2 relative expression", "setting": "[1]; [12]", "value": 0.09}, {"measurement": "CDK4 relative expression", "setting": "[1]; [12]", "value": 0.20}, {"measurement": "CDKN1A relative expression", "setting": "[1]; [12]", "value": 0.08}, {"measurement": "CDKN1B relative expression", "setting": "[1]; [12]", "value": 0.11}, {"measurement": "CDKN2A relative expression", "setting": "[1]; [12]", "value": 0.20}, {"measurement": "CDKN2B relative expression", "setting": "[1]; [12]", "value": 1.98}, {"measurement": "CDKN2C relative expression", "setting": "[1]; [12]", "value": 0.17}, {"measurement": "CDKN2D relative expression", "setting": "[1]; [12]", "value": 0.05}, {"measurement": "IL6 relative expression", "setting": "[1]; [13]", "value": 0.00}, {"measurement": "JAK1 relative expression", "setting": "[1]; [13]", "value": 0.02}, {"measurement": "JAK2 relative expression", "setting": "[1]; [13]", "value": 0.02}, {"measurement": "JAK3 relative expression", "setting": "[1]; [13]", "value": 0.00}, {"measurement": "STAT1 relative expression", "setting": "[1]; [13]", "value": 0.13}, {"measurement": "STAT2 relative expression", "setting": "[1]; [13]", "value": 0.00}, {"measurement": "STAT3 relative expression", "setting": "[1]; [13]", "value": 0.08}, {"measurement": "STAT6 relative expression", "setting": "[1]; [13]", "value": 0.01}, {"measurement": "STATSB relative expression", "setting": "[1]; [13]", "value": 0.49}, {"measurement": "MMP1 relative expression", "setting": "[1]; normalized for GAPDH, invasion", "value": 0.08}, {"measurement": "MMP2 relative expression", "setting": "[1]; normalized for GAPDH, invasion", "value": 0.00}, {"measurement": "MMP3 relative expression", "setting": "[1]; normalized for GAPDH, invasion", "value": 0.01}, {"measurement": "MMP7 relative expression", "setting": "[1]; normalized for GAPDH, invasion", "value": 0.01}, {"measurement": "MMP9 relative expression", "setting": "[1]; normalized for GAPDH, invasion", "value": 0.04}, {"measurement": "PTGS2 relative expression", "setting": "[1]; normalized for GAPDH, invasion", "value": 0.03}, {"measurement": "RAC1 relative expression", "setting": "[1]; normalized for GAPDH, invasion", "value": 0.00}, {"measurement": "RAC2 relative expression", "setting": "[1]; normalized for GAPDH, invasion", "value": 0.01}, {"measurement": "KIT relative expression", "setting": "[1]; [14]", "value": 0.01}, {"measurement": "NOTCH1 relative expression", "setting": "[1]; [14]", "value": 0.38}, {"measurement": "SRC relative expression", "setting": "[1]; [14]", "value": 0.07}, {"measurement": "viability at 100 µg/mL", "setting": "[2]", "value": "100 ± 8.8", "unit": "%"}, {"measurement": "viability at 200 µg/mL", "setting": "[2]", "value": "87.8 ± 8.2", "unit": "%"}, {"measurement": "viability at 400 µg/mL", "setting": "[2]", "value": "78.2 ± 8.5", "unit": "%"}, {"measurement": "viability at 800 µg/mL", "setting": "[2]", "value": "12.5 ± 0.8", "unit": "%"}]}
